For the assay, the target named is phosphorylated active hERK2 enzyme (Homo sapiens (Human), UniProt P28482). As to the kind of experiment: Active Human ERK2 (hERK2) Activity Assay (IMAP-FP). Particulars: Table 6, 0.5 nM hERK2, 30 μM ATP, 10 point titration, read-out: AERK2 IC50. The class given is biochemical. A digest of the protocol:
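IMAP detection beads in buffer with 24 mM NaCl stopped the reaction, and fluorescence polarization was read after 60 min binding.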

Sequence of phosphorylated active hERK2 enzyme (P28482 whole entry): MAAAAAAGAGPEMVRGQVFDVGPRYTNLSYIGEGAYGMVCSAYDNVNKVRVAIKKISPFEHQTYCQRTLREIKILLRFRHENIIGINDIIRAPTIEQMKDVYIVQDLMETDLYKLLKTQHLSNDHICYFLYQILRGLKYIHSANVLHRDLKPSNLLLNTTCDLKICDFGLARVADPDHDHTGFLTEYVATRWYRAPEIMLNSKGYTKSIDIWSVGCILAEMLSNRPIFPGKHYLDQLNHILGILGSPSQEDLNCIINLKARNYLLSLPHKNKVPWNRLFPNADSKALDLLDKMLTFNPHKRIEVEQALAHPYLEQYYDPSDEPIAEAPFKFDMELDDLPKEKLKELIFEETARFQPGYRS

By IC50 is commonly meant the midpoint of a concentration-inhibition curve. Turning to `COC(=O)Nc1n[nH]c2cc(NC(=O)N[C@H](C)c3ccc(Cl)nc3)ncc12` [Example 311, methyl [6-({[(1R)-1-(6-chloropyridin-3-yl)ethyl]-carbamoyl}amino)-1H-pyrazolo[4,3-c]pyridin-3-yl]-carbamate], the half-inhibitory concentration (IC50) came to 19.1 nM.
In the case of `C[C@@H](NC(=O)Nc1cc2[nH]nc(NC(=O)N[C@H](C)c3ccc(Cl)nc3)c2cn1)c1ccc(Cl)nc1` [Example 312, N′,N″′-1H-pyrazolo[4,3-c]pyridine-3,6-diylbis{1-[(1R)-1-(6-chloropyridin-3-yl)ethyl]urea}], the IC50 stood at 134 nM.
For the compound `CCNC(=O)Nc1n[nH]c2cc(NC(=O)N[C@H](C)c3ccccc3)ncc12` [Example 313, (R)-1-(3-(3-ethylureido)-1H-pyrazolo[4,3-c]pyridin-6-yl)-3-(1-phenylethyl)urea], the 50% inhibitory concentration (IC50) was found to be 5.6 nM.
On to `COc1cc([C@@H](C)NC(=O)Nc2cc3[nH]nc(NC(=O)N[C@H](C)c4ccc(Cl)c(OC)c4)c3cn2)ccc1Cl` [Example 314, 1,1′-(1H-pyrazolo[4,3-c]pyridine-3,6-diyl)bis(3-((R)-1-(4-chloro-3-methoxyphenyl)ethyl)urea)], for which the half-inhibitory concentration (IC50) was determined as 732 nM.
The result for `CCOC(=O)Nc1n[nH]c2cc(NC(=O)N[C@H](C)c3ccccc3)ncc12` [Example 315, (R)-ethyl(6-(3-(1-phenylethyl)ureido)-1H-pyrazolo[4,3-c]pyridin-3-yl)carbamate] reads 10 nM.
On to `C[C@@H](NC(=O)Nc1cc2[nH]nc(NCc3cccnc3)c2cn1)c1ccccc1` [Example 316, (R)-1-(1-phenylethyl)-3-(3-((pyridin-3-ylmethyl)amino)-1H-pyrazolo[4,3-c]pyridin-6-yl)urea], for which the concentration for half-maximal inhibition (IC50) was 0.7 nM.
On to `C[C@@H](NC(=O)Nc1cc2[nH]nc(NC(=O)C3CC3)c2cn1)c1ccccc1` [Example 317, (R)—N-(6-(3-(1-phenylethyl)ureido)-1H-pyrazolo[4,3-c]pyridin-3-yl)cyclopropanecarboxamide], for which the IC50 came out at 1 nM.
As for `COCC(=O)Nc1n[nH]c2cc(NC(=O)N[C@H](C)c3ccccc3)ncc12` [Example 318, (R)-2-methoxy-N-(6-(3-(1-phenylethyl)ureido)-1H-pyrazolo[4,3-c]pyridin-3-yl)acetamide], the half-maximal inhibitory concentration (IC50) worked out at 2.2 nM.
The result for `COC[C@@H](NC(=O)Nc1cc2[nH]nc(NC(=O)C(C)C)c2cn1)c1ccccc1` [Example 319, (S)-N-(6-(3-(2-methoxy-1-phenylethyl)ureido)-1H-pyrazolo[4,3-c]pyridin-3-yl)-isobutyramide] reads 0.4 nM; that for `CCNc1n[nH]c2cc(NC(=O)NC(CC)c3ccccn3)ncc12` (stereo not drawn) [Example 320, 1-(3-(ethylamino)-1H-pyrazolo[4,3-c]pyridin-6-yl)-3-(1-(pyridin-2-yl)propyl)urea], 33 nM.
As to `COC(=O)Nc1n[nH]c2cc(NC(=O)N[C@H](C)c3ccc(F)cc3)ncc12` [Example 321, (R)-methyl (6-(3-(1-(4-fluorophenyl)ethyl)ureido)-1H-pyrazolo[4,3-c]pyridin-3-yl)carbamate], the half-maximal inhibitory concentration (IC50) was determined as 2.6 nM.
On to `COC[C@H](NC(=O)Nc1ncc2c(NC(C)C)n[nH]c2c1F)c1ccccc1` [Example 323, 1-{7-fluoro-3-[(1-methylethyl)amino]-1H-pyrazolo[4,3-c]pyridin-6-yl}-3-[(1R)-2-methoxy-1-phenylethyl]urea], for which the IC50 was found to be 4.1 nM.
Consider `CC(C)Nc1n[nH]c2cc(NC(=O)N[C@H](C)c3ccccc3)ncc12` [Example 325, 1-{3-[(1-methyl-ethyl)amino]-1H-pyrazolo[4,3-c]-pyridin-6-yl}-3-[(1R)-1-phenylethyl]urea], for which the IC50 was 1.5 nM.
The result for `C[C@@H](NC(=O)Nc1cc2[nH]nc(NC3CCOCC3)c2cn1)c1ccccc1` [Example 327, 1-[(1R)-1-phenylethyl]-3-[3-(tetrahydro-2H-pyran-4-ylamino)-1H-pyrazolo[4,3-c]pyridin-6-yl]urea] reads 1 nM.
The result for `COC[C@@H](NC(=O)Nc1cc2[nH]nc(NC3CCOCC3)c2cn1)c1ccccc1` [Example 328, 1-[(1S)-2-methoxy-1-phenylethyl]-3-[3-(tetrahydro-2H-pyran-4-ylamino)-1H-pyrazolo[4,3-c]pyridin-6-yl]urea] reads 0.8 nM; that for `COC[C@@H](NC(=O)Nc1cc2[nH]nc(NC3CC3)c2cn1)c1ccccc1` [Example 329, 1-[3-(cyclopropyl-amino)-1H-pyrazolo[4,3-c]-pyridin-6-yl]-3-[(1S)-2-methoxy-1-phenylethyl]urea], 1 nM; that for `C[C@@H](NC(=O)Nc1cc2[nH]nc(NC3CC3)c2cn1)c1ccccc1` [Example 330, 1-[3-(cyclopropyl-amino)-1H-pyrazolo[4,3-c]pyridin-6-yl]-3-[(1R)-1-phenylethyl]urea], 0.9 nM.
On to `CCNc1n[nH]c2cc(NC(=O)N[C@H](C)c3ccccc3)nc(C)c12` [Example 331, (R)-1-(3-(ethylamino)-4-methyl-1H-pyrazolo[4,3-c]pyridin-6-yl)-3-(1-phenylethyl)urea], for which the half-inhibitory concentration (IC50) is 2.9 nM.
The result for `Cc1nc(NC(=O)N[C@H](C)c2ccccc2)cc2[nH]nc(N3CCC[C@H]3C(=O)O)c12` [Example 332, 1-[4-methyl-6-({[(1R)-1-phenyl-ethyl]carbamoyl}-amino)-1H-pyrazolo[4,3-c]-pyridin-3-yl]proline] reads 74.7 nM; that for `Cc1nc(NC(=O)N[C@H](C)c2ccccc2)cc2[nH]nc(N)c12` [Example 333, (R)-1-(3-amino-4-methyl-1H-pyrazolo[4,3-c]pyridin-6-yl)-3-(1-phenylethyl)urea], 0.7 nM; that for `CCNc1n[nH]c2cc(NC(=O)N[C@H](COC)c3ccccc3)nc(C)c12` [Example 334, 1-[3-(ethylamino)-4-methyl-1H-pyrazolo[4,3-c]-pyridin-6-yl]-3-[(1S)-2-methoxy-1-phenylethyl]urea], 2.9 nM.
Turning to `COC[C@@H](NC(=O)Nc1cc2[nH]nc(N)c2c(C)n1)c1ccccc1` [Example 335, 1-(3-amino-4-methyl-1H-pyrazolo[4,3-c]-pyridin-6-yl)-3-[(1S)-2-methoxy-1-phenylethyl]urea], the IC50 is 3 nM.
Consider `CNc1n[nH]c2cc(NC(=O)N[C@H](C)c3ccccc3)nc(C)c12` [Example 336, 1-[4-methyl-3-(methylamino)-1H-pyrazolo[4,3-c]pyridin-6-yl]-3-[(1R)-1-phenylethyl]urea], for which the IC50 turned out to be 11.8 nM.
As to `CC(=O)Nc1n[nH]c2cc(NC(=O)N[C@H](C)c3ccccc3)nc(C)c12` [Example 337, (R)—N-(4-methyl-6-(3-(1-phenylethyl)ureido)-1H-pyrazolo[4,3-c]pyridin-3-yl)acetamide], the IC50 worked out at 127 nM.
Then `COC(=O)Nc1n[nH]c2cc(NC(=O)N[C@H](C)c3ccccc3)nc(C)c12` [Example 338, methyl [4-methyl-6-({[(1R)-1-phenyl-ethyl]carbamoyl}-amino)-1H-pyrazolo[4,3-c]-pyridin-3-yl]-carbamate], with 16.1 nM.
With `COC[C@H](NC(=O)Nc1cc2[nH]nc(N3CCOCC3)c2cn1)c1ccc(F)cc1` [Example 339, (R)-1-(1-(4-fluorophenyl)-2-methoxyethyl)-3-(3-morpholino-1H-pyrazolo[4,3-c]-pyridin-6-yl)urea], the half-maximal inhibitory concentration (IC50) is 0.4 nM.
Then `CC(C)Nc1n[nH]c2cc(NC(=O)N[C@H](C)c3ccc(F)cc3)ncc12` [Example 340, (R)-1-(1-(4-fluorophenyl)ethyl)-3-(3-(isopropyl-amino)-1H-pyrazolo[4,3-c]-pyridin-6-yl)urea], with 1.6 nM.
Take `C[C@@H](NC(=O)Nc1cc2[nH]nc(NCC(F)(F)F)c2cn1)c1ccccc1` [Example 341, 1-[(1R)-1-phenylethyl]-3-{3-[(2,2,2-trifluoro-ethyl)amino]-1H-pyrazolo[4,3-c]-pyridin-6-yl}urea]: the IC50 is 2.4 nM.
Then `COC[C@@H](NC(=O)Nc1cc2[nH]nc(NCC(F)(F)F)c2cn1)c1ccccc1` [Example 342, 1-[(1S)-2-methoxy-1-phenylethyl]-3-{3-[(2,2,2-trifluoro-ethyl)amino]-1H-pyrazolo[4,3-c]-pyridin-6-yl}urea], with 0.9 nM; and `CNc1n[nH]c2cc(NC(=O)N[C@H](C)c3ccc(Cl)cc3)ncc12` [Example 343, 1-[(1R)-1-(4-chlorophenyl)ethyl]-3-[3-(methyl-amino)-1H-pyrazolo[4,3-c]-pyridin-6-yl]urea], with 7.8 nM.
With `CC[C@@H](NC(=O)Nc1cc2[nH]nc(N3CCCC3)c2cn1)c1ccccn1` [Example 344, 1-[(1R)-1-pyridin-2-ylpropyl]-3-(3-pyrrolidin-1-yl-1H-pyrazolo[4,3-c]-pyridin-6-yl)urea], the half-inhibitory concentration (IC50) came out at 1020 nM.
With `CC[C@H](NC(=O)Nc1cc2[nH]nc(N3CCCC3)c2cn1)c1ccccn1` [Example 345, 1-[(1S)-1-pyridin-2-ylpropyl]-3-(3-pyrrolidin-1-yl-1H-pyrazolo[4,3-c]-pyridin-6-yl)urea], the half-maximal inhibitory concentration (IC50) worked out at 13.8 nM.
As for `COC[C@@H](NC(=O)Nc1cc2[nH]nc(NC3CCC3)c2cn1)c1ccccc1` [Example 346, 1-[3-(cyclobutyl-amino)-1H-pyrazolo[4,3-c]-pyridin-6-yl]-3-[(1S)-2-methoxy-1-phenylethyl]urea], the half-inhibitory concentration (IC50) was determined as 0.4 nM.
For the compound `C[C@@H](NC(=O)Nc1cc2[nH]nc(NCC(=O)N(C)C)c2cn1)c1ccccc1` [Example 347, N,N-dimethyl-N~2~-[6-({[(1R)-1-phenylethyl]-carbamoyl}-amino)-1H-pyrazolo[4,3-c]-pyridin-3-yl]-glycinamide], the IC50 worked out at 18.3 nM.
The result for `C[C@@H](NC(=O)Nc1cc2[nH]nc(NCCC(=O)N(C)C)c2cn1)c1ccccc1` [Example 348, N,N-dimethyl-N~3~-[6-({[(1R)-1-phenylethyl]-carbamoyl}amino)-1H-pyrazolo[4,3-c]pyridin-3-yl]-beta-alaninamide] reads 3.1 nM; that for `CC(=O)N(C)c1n[nH]c2cc(NC(=O)N[C@H](C)c3ccccc3)ncc12` [Example 349, N-methyl-N-[6-({[(1R)-1-phenyl-ethyl]carbamoyl}-amino)-1H-pyrazolo[4,3-c]-pyridin-3-yl]-acetamide], 484 nM.

The record behind these values is patent US9233979B2, “Compounds that are ERK inhibitors” (Merck Sharp & Dohme Corp., priority 2012, dated 2016).
